According to ChEMBL document CHEMBL6120965, “Structure-Activity Relationship Studies Leading to the Discovery of Highly Water-Soluble and Biocompatible Acyclic Cucurbit[n]uril FY-3451 as a Universal Antagonist That Rapidly Reverses Neuromuscular Blocking Agents In Vivo” (J Med Chem, 2024):

Columns and labels:
[1] = tested on: Pancuronium; test: Binding affinity to Pancuronium by Competition UV-Vis titration method
[2] = Toxicity in Sprague-Dawley rat assessed as histological changes in heart measured at 2000 mg/kg, iv upto 14 days by H and E assay; format: organism-based; settings: in vivo, 336 h, time < 14 day
[3] = tested on: Rattus norvegicus; test: Recovery of Pan-induced neuromuscular block in Sprague-Dawley rat assessed as […] ratio (TOFr) >= 90% by measuring recovery time at 25 mg/kg, iv (reference value: 3600 seconds); format: functional
[4] = Therapeutic index, ratio of toxicity in iv dosed Sprague-Dawley rat assessed as maximum tolerated dose to recovery of Roc/Vec/Panc-induced neuromuscular block in Sprague-Dawley rat assessed as […] ratio (TOFr) by measuring recovery time at 25 mg/kg, iv; format: organism-based; settings: in vivo, read-out: TI
[5] = tested on: Rattus norvegicus; test: Recovery of CisA-induced neuromuscular block in Sprague-Dawley rat assessed as […] ratio (TOFr) >= 90% by measuring recovery time at 150 mg/kg, iv (reference value: 784 seconds); format: functional
[6] = Toxicity in Sprague-Dawley rat assessed as body weight loss measured at 2000 mg/kg, iv upto 14 days; format: organism-based; settings: in vivo, 336 h, time < 14 day
[7] = Toxicity in human whole blood assessed as clotting indices measured at 1 mg/ml; format: tissue-based
[8] = tested on: Rocuronium; test: Binding affinity to Rocuronium by Competition UV-Vis titration method
[9] = tested on: Rattus norvegicus; test: Recovery of CisA-induced neuromuscular block in Sprague-Dawley rat assessed as […] ratio (TOFr) by measuring recovery time at 25 mg/kg, iv (reference value: 784 seconds); format: functional
[10] = Hemolytic activity in human erythrocytes assessed as hemolysis at 0.51 to 32.8 mg/ml; format: toxicity, cell-based, Erythrocyte; settings: dose 0.51-32.8 mg/ml, read-out: Activity
[11] = Toxicity in Sprague-Dawley rat assessed as histological changes in spleen measured at 2000 mg/kg, iv upto 14 days by H and E assay; format: organism-based; settings: in vivo, 336 h, time < 14 day
[12] = Toxicity in Sprague-Dawley rat assessed as histological changes in liver measured at 2000 mg/kg, iv upto 14 days by H and E assay; format: organism-based; settings: in vivo, 336 h, time < 14 day
[13] = Toxicity in Sprague-Dawley rat assessed as histological changes in lungs measured at 2000 mg/kg, iv upto 14 days by H and E assay; format: organism-based; settings: in vivo, 336 h, time < 14 day
[14] = Therapeutic index, ratio of toxicity in iv dosed Sprague-Dawley rat assessed as maximum tolerated dose to recovery of CisA-induced neuromuscular block in Sprague-Dawley rat assessed as […] ratio (TOFr) by measuring recovery time at 80 to 100 mg/kg, iv; format: organism-based; settings: in vivo, dose 80-100 mg/kg, read-out: TI
[15] = Toxicity in Sprague-Dawley rat assessed as histological changes in kidney measured at 2000 mg/kg, iv upto 14 days by H and E assay; format: organism-based; settings: in vivo, 336 h, time < 14 day
[16] = Toxicity in iv dosed Sprague-Dawley rat assessed as maximum tolerated dose measured upto 14 days; format: organism-based; settings: in vivo, 336 h, time < 14 day
[17] = tested on: Rhodamine 6G; test: Binding affinity to Rhodamine 6G by Competition UV-Vis titration method
[18] = Toxicity in human plasma assessed as abnormality in aPTT by measuring clotting time at < 4.8 mg/kg; format: organism-based; settings: in vivo
[19] = tested on: Rattus norvegicus; test: Recovery of Vec-induced neuromuscular block in Sprague-Dawley rat assessed as […] ratio (TOFr) >= 90% by measuring recovery time at 25 mg/kg, iv (reference value: 525 seconds); format: functional
[20] = tested on: Rattus norvegicus; test: Recovery of Roc-induced neuromuscular block in Sprague-Dawley rat assessed as […] ratio (TOFr) by measuring recovery time at 12.5 mg/kg, iv (reference value: […]); format: functional
[21] = tested on: Cisatracurium; test: Binding affinity to Cisatracurium by Competition UV-Vis titration method
[22] = tested on: Trans-cydohexane-1,4-diartunonium dichloride; test: Binding affinity to Trans-[…] dichloride by Competition UV-Vis titration method
[23] = tested on: Rattus norvegicus; test: Recovery of CisA-induced neuromuscular block in Sprague-Dawley rat assessed as […] ratio (TOFr) >= 90% by measuring recovery time at 100 mg/kg, iv (reference value: 784 seconds); format: functional
[24] = tested on: Vecuronium; test: Binding affinity to Vecuronium by Competition UV-Vis titration method
[25] = tested on: Midazolium-based-macrocycle; test: Binding affinity to Midazolium-based-macrocycle by Competition UV-Vis titration method
[26] = tested on: Rattus norvegicus; test: Recovery of IMC-1-induced neuromuscular block in Sprague-Dawley rat assessed as […] ratio (TOFr) >= 90% by measuring recovery time at 10 mg/kg, iv (reference value: 4021 seconds); format: functional
[27] = tested on: Proflavine; test: Binding affinity to Proflavine by Competition UV-Vis titration method
[28] = Cytotoxicity against rat H9c2 cells assessed as cell viability measured after 25 hrs by CCK-8 assay; format: toxicity, cell-based
[29] = tested on: Rattus norvegicus; test: Recovery of Roc-induced neuromuscular block in Sprague-Dawley rat assessed as […] ratio (TOFr) >= 90% by measuring recovery time at 25 mg/kg, iv (reference value: 597 seconds); format: functional
[30] = Water solubility of the compound measured at 25 degreeC; format: physicochemical
[31] = Cytotoxicity against rat H9c2 cells assessed as cell viability at 0.5 mg/ml measured after 25 hrs by CCK-8 assay; format: toxicity, cell-based; settings: read-out: Activity
[32] = Hemolytic activity in Sprague-Dawley rat erythrocytes assessed as hemolysis at 0.51 to 32.8 mg/ml; format: toxicity, cell-based, Erythrocyte; settings: dose 0.51-32.8 mg/ml, read-out: Activity

## C[C@]12N3Cc4c(c(OCCCS(=O)(=O)[O-])c5c(c4OCCCS(=O)(=O)[O-])CCC5)CN1C(=O)N1CN4C(=O)N5CN6C(=O)N7CN8C(=O)N9Cc%10c(c(OCCCS(=O)(=O)[O-])c%11c(c%10OCCCS(=O)(=O)[O-])CCC%11)CN%10C(=O)N(CN%11C(=O)N(CN%12C(=O)N(CN(C3=O)[C@]12C)[C@@H]4[C@H]%125)[C@@H]6[C@H]%117)[C@]8(C)[C@@]9%10C.[Na+].[Na+].[Na+].[Na+]
[1]
  Ka: 1.22 10^7/M
[2]
  Activity: Non-toxic
[3]
  Time: 20 s
[4]
  selectivity ratio: 60
[5]
  Time: 24 s
[6]
  Activity: Non-toxic
[7]
  Activity: Non-toxic
[8]
  Ka: 20.1 10^7/M
[9]
  Time: 27 s
[10]
  hemolysis: < 5%
[11]
  Activity: Non-toxic
[12]
  Activity: Non-toxic
[13]
  Activity: Non-toxic
[14]
  selectivity ratio: 18.8
[15]
  Activity: Non-toxic
[16]
  MTD: 500 mg/kg
[17]
  Ka: 0.1 10^7/M
[18]
  Activity: Non-toxic
[19]
  Time: 15 s
[20]
  Time: 15 s
[21]
  Ka: 0.088 10^7/M
[22]
  Ka: 0.043 10^7/M
[23]
  Time: 34 s
[24]
  Ka: 21 10^7/M
[25]
  Ka: 339 10^7/M
[26]
  Time: 12 s
[27]
  Ka: 29.6 10^7/M
[28]
  IC50 at 25 h: > 1000 µg/mL
[29]
  Time: 24 s
[30]
  solubility: 1000 mg/mL
[31]
  viability at 25 h, 0.5 mg/ml: 80%
[32]
  hemolysis: < 5%
